Numbers after ± are expanded uncertainties.
How the values were obtained:
[1] = Liquid, Vibrating tube method
[2] = xn = mol fraction of the nth substance listed; settings: Liquid, Vibrating tube method, x2 = 0

Row | SMILES | mass density ([1]; 298.15 K, 100 kPa) | mass density ([1]; 303.15 K, 100 kPa) | mass density ([1]; 308.15 K, 100 kPa) | mass density ([1]; 313.15 K, 100 kPa) | mass density ([1]; 318.15 K, 100 kPa) | mass density ([1]; 323.15 K, 100 kPa) | mass density ([1]; 328.15 K, 100 kPa) | mass density ([1]; 333.15 K, 100 kPa) | mass density ([1]; 338.15 K, 100 kPa) | mass density ([1]; 343.15 K, 100 kPa) | mass density ([1]; 348.15 K, 100 kPa) | mass density ([1]; 353.15 K, 100 kPa) | mass density ([1]; 358.15 K, 100 kPa) | mass density ([1]; 363.15 K, 100 kPa) | mass density ([1]; 373.15 K, 700 kPa) | mass density ([1]; 383.15 K, 700 kPa) | mass density ([1]; 393.15 K, 700 kPa) | mass density ([1]; 403.15 K, 700 kPa) | mass density ([1]; 413.15 K, 700 kPa) | mass density ([1]; 423.15 K, 700 kPa) | also measured
1 | CN(CCO)CCO [N-methyldiethanolamine] | 1036 ± 3.1 kg/m3 | 1032.4 ± 3.1 kg/m3 | 1028.6 ± 3.1 kg/m3 | 1024.8 ± 3.1 kg/m3 | 1021 ± 3.1 kg/m3 | 1017.2 ± 3.1 kg/m3 | 1013.3 ± 3.1 kg/m3 | 1009.4 ± 3.1 kg/m3 | 1005.6 ± 3.1 kg/m3 | 1001.7 ± 3.1 kg/m3 | 997.7 ± 3.1 kg/m3 | 993.8 ± 3.1 kg/m3 | 989.9 ± 3.1 kg/m3 | 985.9 ± 3.1 kg/m3 | 978.6 ± 3.1 kg/m3 | 970.3 ± 3.1 kg/m3 | 962.1 ± 3.1 kg/m3 | 953.9 ± 3.1 kg/m3 | 945.6 ± 3.1 kg/m3 | 937 ± 3.1 kg/m3 | –
2 | OCCNCCO [diethanolamine] | 1093.6 ± 3.6 kg/m3 | 1090.4 ± 3.6 kg/m3 | 1087.1 ± 3.6 kg/m3 | 1083.8 ± 3.6 kg/m3 | 1080.6 ± 3.6 kg/m3 | 1077.4 ± 3.6 kg/m3 | 1074.1 ± 3.6 kg/m3 | 1070.8 ± 3.6 kg/m3 | 1067.4 ± 3.6 kg/m3 | 1064 ± 3.6 kg/m3 | 1060.6 ± 3.6 kg/m3 | 1057.2 ± 3.6 kg/m3 | 1053.7 ± 3.6 kg/m3 | 1050.1 ± 3.6 kg/m3 | 1043.3 ± 3.6 kg/m3 | 1035.5 ± 3.6 kg/m3 | 1028.1 ± 3.6 kg/m3 | 1020.5 ± 3.6 kg/m3 | 1012.9 ± 3.6 kg/m3 | 1004.8 ± 3.6 kg/m3 | –
3 | O [water] + CN(CCO)CCO | – | – | – | – | – | – | – | – | – | – | – | – | – | – | – | – | – | – | – | – | mass density ([2]; 323.15 K, 100 kPa): 988 ± 3 kg/m3; mass density ([2]; 328.15 K, 100 kPa): 985.7 ± 3 kg/m3; mass density ([2]; 333.15 K, 100 kPa): 983.2 ± 3 kg/m3; mass density ([2]; 338.15 K, 100 kPa): 980.5 ± 3 kg/m3; mass density ([2]; 343.15 K, 100 kPa): 977.7 ± 3 kg/m3; mass density ([2]; 348.15 K, 100 kPa): 974.8 ± 3 kg/m3; mass density ([2]; 353.15 K, 100 kPa): 971.8 ± 3 kg/m3; mass density ([2]; 358.15 K, 100 kPa): 968.6 ± 3 kg/m3; mass density ([2]; 363.15 K, 100 kPa): 965.3 ± 3 kg/m3; mass density ([2]; 373.15 K, 700 kPa): 958.6 ± 3 kg/m3; mass density ([2]; 383.15 K, 700 kPa): 951.2 ± 3 kg/m3; mass density ([2]; 393.15 K, 700 kPa): 943.4 ± 3 kg/m3; mass density ([2]; 403.15 K, 700 kPa): 935.1 ± 3 kg/m3; mass density ([2]; 413.15 K, 700 kPa): 926.3 ± 3 kg/m3; mass density ([2]; 423.15 K, 700 kPa): 917.1 ± 3 kg/m3
4 | O [water] + OCCNCCO | – | – | – | – | – | – | – | – | – | – | – | – | – | – | – | – | – | – | – | – | mass density ([2]; 323.15 K, 100 kPa): 988 ± 3.5 kg/m3; mass density ([2]; 328.15 K, 100 kPa): 985.7 ± 3.5 kg/m3; mass density ([2]; 333.15 K, 100 kPa): 983.2 ± 3.5 kg/m3; mass density ([2]; 338.15 K, 100 kPa): 980.5 ± 3.5 kg/m3; mass density ([2]; 343.15 K, 100 kPa): 977.7 ± 3.5 kg/m3; mass density ([2]; 348.15 K, 100 kPa): 974.8 ± 3.5 kg/m3; mass density ([2]; 353.15 K, 100 kPa): 971.8 ± 3.5 kg/m3; mass density ([2]; 358.15 K, 100 kPa): 968.6 ± 3.5 kg/m3; mass density ([2]; 363.15 K, 100 kPa): 965.3 ± 3.5 kg/m3; mass density ([2]; 373.15 K, 700 kPa): 958.6 ± 3.5 kg/m3; mass density ([2]; 383.15 K, 700 kPa): 951.2 ± 3.5 kg/m3; mass density ([2]; 393.15 K, 700 kPa): 943.4 ± 3.5 kg/m3; mass density ([2]; 403.15 K, 700 kPa): 935.1 ± 3.5 kg/m3; mass density ([2]; 413.15 K, 700 kPa): 926.3 ± 3.5 kg/m3; mass density ([2]; 423.15 K, 700 kPa): 917.1 ± 3.5 kg/m3
